Measurements taken from US10517889B2, “Modulators of SMAD7 expression” (Ionis Pharmaceuticals, Inc., priority 2017, dated 2019).
Strand notation (5' to 3'): a small letter for the sugar, then the base; units joined by * are phosphorothioate-linked, units joined directly phosphodiester-linked; [ ] holds rarer units or linkages, { } end groups; capitals alone tell only the bases. k = constrained ethyl (cEt); [5mC] = 5-methylcytosine; d = 2'-deoxy (DNA)

System: human SMAD7 mRNA
Assay: Antisense inhibition of human SMAD7 mRNA expression in Hep3B cells by 3-10-3 cEt gapmers, 10,000 nM, electroporation (Example 2)
Type: cell-based
Conditions: Hep3B cells, electroporation with 10,000 nM antisense oligonucleotide, approximately 24 hours; for % Inhibition: SMAD7 mRNA by RT-PCR (RTS5062), relative to untreated control cells; for % inhibition of SMAD7 mRNA expression: primer probe set RTS5062, relative to untreated control cells
Summary of the method: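 qRT-PCR (RTS5062) of SMAD7 mRNA, normalised to RIBOGREEN total RNA, gave percent inhibition relative to untreated controls. Hep3B cells at 20,000 per well received 10,000 nM oligonucleotide by electroporation, with ~24 h treatment.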

Row | Substance | % Inhibition [%] | % inhibition of SMAD7 mRNA expression [%]
1 | 799373 (antisense kA*kA*k[5mC]*d[5mC]*dG*dT*d[5mC]*dT*dT*d[5mC]*d[5mC]*d[5mC]*dA*kT*k[5mC]*kT) [compound 799373] | 56 | 
2 | 799374 (antisense kT*kT*kG*d[5mC]*dA*d[5mC]*d[5mC]*dT*dT*dT*dT*dT*dA*kA*kA*k[5mC]) [compound 799374] | 30 | 
3 | 799375 (antisense kG*k[5mC]*k[5mC]*dT*dA*dT*dA*d[5mC]*dT*dT*d[5mC]*dT*dG*kA*kA*kA) [compound 799375] | 10 | 
4 | 799376 (antisense kG*k[5mC]*kA*dG*dG*dA*dG*dG*dA*dA*d[5mC]*d[5mC]*dT*kA*k[5mC]*k[5mC]) [compound 799376] | 45 | 
5 | 799377 (antisense kT*kT*kG*d[5mC]*dA*dG*dG*dT*dG*dA*d[5mC]*dT*dG*kG*kA*kG) [compound 799377] |  | 15
6 | 799378 (antisense kG*kA*kA*dT*dA*d[5mC]*dT*dG*dA*dG*dA*dA*dA*kA*k[5mC]*k[5mC]) [compound 799378] |  | 46
7 | 799379 (antisense kT*kT*kT*dG*dA*dT*dA*dG*dT*d[5mC]*d[5mC]*d[5mC]*dT*kA*kT*kG) [compound 799379] |  | 0
8 | 799380 (antisense k[5mC]*kT*k[5mC]*d[5mC]*dT*dA*d[5mC]*dT*dG*dT*dA*dA*dG*kA*kG*kG) [compound 799380] |  | 1
9 | 799381 (antisense kA*kA*k[5mC]*dA*dG*dA*dT*d[5mC]*dT*dA*dT*d[5mC]*dT*k[5mC]*k[5mC]*kT) [compound 799381] |  | 54
10 | 799383 (antisense k[5mC]*kA*k[5mC]*dA*dA*dA*dA*dA*d[5mC]*d[5mC]*dA*dA*dG*kG*kT*kT) [compound 799383] |  | 40
11 | 799384 (antisense kG*kG*k[5mC]*dA*d[5mC]*dA*dA*dA*dA*dA*d[5mC]*d[5mC]*dA*kA*kG*kG) [compound 799384] |  | 40
12 | 799385 (antisense kT*kG*k[5mC]*d[5mC]*d[5mC]*dA*dA*d[5mC]*d[5mC]*d[5mC]*dT*dT*d[5mC]*kA*k[5mC]*kT) [compound 799385] |  | 31
13 | 799386 (antisense kA*kG*kG*dA*dG*d[5mC]*dT*dA*dA*dA*dT*dG*dG*kT*kG*k[5mC]) [compound 799386] |  | 12
14 | 799387 (antisense k[5mC]*k[5mC]*kA*dG*dG*dA*dG*d[5mC]*dT*dA*dA*dA*dT*kG*kG*kT) [compound 799387] | 22 | 
15 | 799388 (antisense kT*kT*kG*d[5mC]*dA*dG*dA*dA*dT*dT*d[5mC]*d[5mC]*dA*kG*kG*kA) [compound 799388] | 41 | 
16 | 799389 (antisense kA*kA*kA*dA*d[5mC]*dG*d[5mC]*dA*dG*dG*dA*dG*dG*k[5mC]*kG*kG) [compound 799389] | 27 | 
17 | 799390 (antisense k[5mC]*kA*kA*dA*dA*d[5mC]*dT*dT*dT*dT*dA*dA*dT*kT*kA*kG) [compound 799390] | 0 | 
18 | 799391 (antisense k[5mC]*kG*k[5mC]*d[5mC]*d[5mC]*d[5mC]*dA*dG*d[5mC]*dA*dA*dA*dA*k[5mC]*kT*kT) [compound 799391] | 0 | 
19 | 799392 (antisense kT*kA*kT*dT*dA*dG*dA*d[5mC]*d[5mC]*dG*dG*d[5mC]*dA*k[5mC]*k[5mC]*kA) [compound 799392] | 46 | 
20 | 799393 (antisense kT*kG*k[5mC]*dT*dT*dT*dG*d[5mC]*dG*dG*dG*d[5mC]*d[5mC]*kA*k[5mC]*kT) [compound 799393] | 56 | 
21 | 799394 (antisense kA*k[5mC]*kA*dG*dA*dG*dA*dG*d[5mC]*dT*dG*dG*dG*kT*kA*kT) [compound 799394] | 33 | 
22 | 799395 (antisense kT*kT*kA*d[5mC]*dA*dA*dA*dT*dA*d[5mC]*dA*dG*dA*kG*kA*kG) [compound 799395] | 62 | 
23 | 799397 (antisense kA*kA*kA*dA*d[5mC]*dA*dG*dA*dG*d[5mC]*dT*dT*dG*kG*kT*kA) [compound 799397] |  | 27
24 | 799398 (antisense k[5mC]*kT*kT*dG*dG*dA*dA*dA*dA*dT*dG*dA*dA*k[5mC]*kT*kT) [compound 799398] |  | 48
25 | 799399 (antisense kT*k[5mC]*k[5mC]*dA*dA*dA*dT*dT*dT*dG*dA*dA*dG*kA*kA*kT) [compound 799399] |  | 0
26 | 799400 (antisense kG*kG*kA*dA*dA*dA*d[5mC]*d[5mC]*dT*d[5mC]*d[5mC]*dA*dA*kA*kT*kT) [compound 799400] |  | 0
27 | 799401 (antisense kT*k[5mC]*kT*dT*dT*dT*dA*dA*dG*dG*dA*dA*dA*kA*k[5mC]*k[5mC]) [compound 799401] |  | 53

Row | Substance | % Inhibition [%] | % inhibition of SMAD7 mRNA expression [%]
28 | 799403 (antisense kG*k[5mC]*kT*dA*dA*dG*dG*dT*d[5mC]*dA*d[5mC]*dT*dG*kT*kT*k[5mC]) [compound 799403] |  | 0
29 | 799405 (antisense k[5mC]*kT*kG*dG*dG*dA*dA*d[5mC]*dA*dT*dT*dT*dA*k[5mC]*k[5mC]*k[5mC]) [compound 799405] |  | 28
30 | 799407 (antisense kT*kG*k[5mC]*dA*dG*dG*dA*dA*dA*d[5mC]*d[5mC]*d[5mC]*dA*kA*kG*kG) [compound 799407] | 33 | 
31 | 799408 (antisense kT*kT*kA*dA*dA*dT*d[5mC]*d[5mC]*dT*dG*dA*dG*dA*kA*k[5mC]*kA) [compound 799408] | 27 | 
32 | 799409 (antisense k[5mC]*kT*kA*d[5mC]*d[5mC]*dT*dA*dA*dT*dG*dT*d[5mC]*dA*kA*k[5mC]*kA) [compound 799409] | 34 | 
33 | 799411 (antisense kT*kG*kG*dA*dG*dA*dA*d[5mC]*dT*dT*dT*dT*d[5mC]*kT*k[5mC]*k[5mC]) [compound 799411] | 0 | 
34 | 799413 (antisense kA*kT*kT*dA*d[5mC]*dT*dG*dA*dT*dG*d[5mC]*dT*dA*kA*kA*kT) [compound 799413] | 34 | 
35 | 799414 (antisense k[5mC]*kA*kA*dA*dA*d[5mC]*d[5mC]*dA*dG*d[5mC]*d[5mC]*d[5mC]*d[5mC]*kA*kG*kA) [compound 799414] | 34 | 
36 | 799415 (antisense kG*k[5mC]*k[5mC]*dA*d[5mC]*dA*dG*d[5mC]*dA*dG*d[5mC]*dT*dG*kG*k[5mC]*kA) [compound 799415] | 0 | 
37 | 799416 (antisense kA*kA*kG*dA*d[5mC]*d[5mC]*dT*dG*dG*dG*dT*d[5mC]*dA*kG*k[5mC]*kG) [compound 799416] |  | 41
38 | 799417 (antisense kG*kG*k[5mC]*d[5mC]*dA*dA*dA*d[5mC]*dA*dT*dT*d[5mC]*dT*k[5mC]*k[5mC]*k[5mC]) [compound 799417] |  | 26
39 | 799418 (antisense kG*kT*kA*dA*dA*dT*dG*dG*dT*d[5mC]*d[5mC]*dA*dT*kG*kT*kA) [compound 799418] |  | 12
40 | 799419 (antisense kA*kA*kA*dA*dA*dT*dT*d[5mC]*dA*dA*d[5mC]*d[5mC]*dT*kA*kA*kG) [compound 799419] |  | 0
41 | 799420 (antisense k[5mC]*kA*kA*dG*dA*d[5mC]*d[5mC]*dA*dA*dA*dA*dA*dT*kT*k[5mC]*kA) [compound 799420] |  | 32
42 | 799421 (antisense kA*kA*k[5mC]*d[5mC]*d[5mC]*dA*dA*dG*dA*d[5mC]*d[5mC]*dA*dA*kA*kA*kA) [compound 799421] |  | 63
43 | 799422 (antisense kG*kA*kT*dT*dT*dT*dA*dA*d[5mC]*dA*dG*dT*dT*kG*kT*k[5mC]) [compound 799422] |  | 33
44 | 799423 (antisense kT*kA*k[5mC]*d[5mC]*dA*dG*dG*d[5mC]*d[5mC]*d[5mC]*d[5mC]*dA*dG*k[5mC]*k[5mC]*k[5mC]) [compound 799423] |  | 14
45 | 799424 (antisense k[5mC]*kT*k[5mC]*d[5mC]*dA*dA*dA*dG*dG*d[5mC]*dT*dG*d[5mC]*kA*kG*kG) [compound 799424] |  | 34
46 | 799425 (antisense kA*kT*kT*dA*dT*dA*dG*d[5mC]*dA*dA*dA*dA*dT*kG*kG*kA) [compound 799425] |  | 23
47 | 799426 (antisense kG*k[5mC]*kT*dT*dA*dA*dA*dT*dT*dA*dT*dA*dG*k[5mC]*kA*kA) [compound 799426] | 7 | 
48 | 799427 (antisense kG*kT*k[5mC]*d[5mC]*dA*dG*dG*d[5mC]*d[5mC]*dT*d[5mC]*d[5mC]*d[5mC]*kA*kG*kA) [compound 799427] | 20 | 
49 | 799428 (antisense kG*kA*k[5mC]*d[5mC]*dA*d[5mC]*dA*d[5mC]*dA*dG*dT*dA*d[5mC]*k[5mC]*kT*kA) [compound 799428] | 47 | 
50 | 799430 (antisense kA*kG*k[5mC]*d[5mC]*dA*d[5mC]*dA*dA*dG*dT*d[5mC]*dA*d[5mC]*kA*kA*k[5mC]) [compound 799430] | 29 | 
51 | 799431 (antisense kG*kA*k[5mC]*dA*dG*d[5mC]*d[5mC]*dA*d[5mC]*dA*dA*dG*dT*k[5mC]*kA*k[5mC]) [compound 799431] | 39 | 
52 | 799432 (antisense kT*kG*kA*d[5mC]*dA*dG*d[5mC]*d[5mC]*dA*d[5mC]*dA*dA*dG*kT*k[5mC]*kA) [compound 799432] | 7 | 
53 | 799433 (antisense kT*kT*k[5mC]*dT*dT*dG*dT*dG*dG*dG*dA*dT*dG*kT*kG*kG) [compound 799433] | 56 | 
